The record followed here is patent publication US10925858B2, “S-nitrosoglutathione (GSNO) and GSNO reductase inhibitors for use in therapy” (MUSC FOUNDATION FOR RESEARCH DEVELOPMENT, priority 2017, dated 2021).

For assay [1], the system named is RhoA. Kind of assay: RhoA activity assay in thrombin treated hBMVECs. Format: cell-based, human. The settings on record: thrombin 0.1 unit/ml 5 min; L-NIO or FeTPPS 10 μM pretreated 30 min; GSNO or SIN-1 various concentrations pretreated 2 hr. How it is done:
Cell culture: Primary human brain microvascular endothelial cells (hBMVECs) were purchased from Angio-Proteomie (Cat #: cAP-0002, Atlanta, Ga.). The cells were cultured in cell culture flasks or plates precoated with Quick Coating Solution (Angio-Proteomie; Cat #: cAP-01) and maintained in Endothelial Growth Medium (Angio-Proteomie; Cat #: cAP-02) at 37° C. under 5% CO2/95% air. When the cells were almost confluent, the medium was replaced with endothelial basal medium (Angio-Proteomie; Cat #: cAP-03) containing 0.5% fetal bovine serum (FBS; Life Technologies, Grand Island, N.Y.) about 8-12 hours before the experiment. No institutional approval was required for this study. The study was not pre-registered.
RhoA activity in hBMVECs was analyzed by RhoA Activation Assay Kit (Abeam Cat #: ab211164, Cambridge, Mass.). Briefly, following drug treatments, the cells were lysed with 1× Assay buffer provided in the kit. Lysates were centrifuged (14,000×g for 10 sec), and supernatants were incubated with agarose beads coupled to GST-Rhotekin-Rho binding domain (RBD) for 2 h at 4° C. Beads were then washed with 1× Assay buffer and GTP-bound RhoA was eluted with 2×SDS-PAGE sample buffer. Amounts of active (GTP-bound) RhoA were determined by Western blot analysis using antibody specific to RhoA (Abeam).

Assay [2] relates to CD4+ T cells (TH1, TH2, TH17, Treg). In words: Fluorescence flow cytometry, polarization/expansion of CD4+ T cell subsets in spleens of EAE mice. Set-up: species or system C57BL/6 mice. The following applies: EAE mice at peak of disease, ex vivo MOG restimulation. The procedure:
Female C57BL/6 mice of 8-12 weeks of age, purchased from Jackson Laboratory, were provided with food and water ad libitum and were kept in pathogen free animal care facility of Medical University of South Carolina (MUSC) throughout the study. All procedures were conducted in accordance with accepted standards of humane care as approved by the Institutional Animal Care and Use Committee (Approved number: AR #1644). EAE was induced as described previously (Nath et al., 2009). Briefly, mice were immunized subcutaneously in the flank regions with MOG35-55 peptide (MOG; 200 μg; Peptide International) emulsified (1:1) in 100 ul complete Freund's adjuvant (CFA) on day 0 and day 7. Additionally, 300 ng of Pertussis toxin (Sigma-Aldrich, St. Louis, Mo.) was given on day 0 and day 2 by i.p. injection. Pertussis toxin used as per the standardized protocol reported by us and other investigators for the induction of EAE (Nath et al., 2009). Similarly, healthy control group received subcutaneous injection of PBS and CFA emulsion on day 0 and day 7. Clinical signs of EAE were scored by examiners blinded to experimental treatments using the following scale: 0=no clinical signs of disease; 1=piloerection and sluggish; 2=limp tail (ataxia); 2.5=ataxia with partial hind limb paralysis; 3=full paralysis of hind limb; 3.5=full paralysis of hind limb with paralysis of one fore limb; 4=full paralysis of two limbs; 4.5=moribund stage; 5=death. […] The drug treatments were continued till the termination of the study (day 41 post immunization). EAE animals without drug treatment received PBS. Likewise, healthy controls received vehicle.
Fluorescence flow cytometry analysis for each subset of CD4+ T cells (TH1, TH2, TH17, CD4+CD25+ FOXP3+ Treg, and CD4+CD25+ FOXP3− Treg) were performed based on our previous report with modification (Nath et al., 2004). Briefly, control mice, EAE mice. EAE mice treated with GSNO. […] Following the preparation of single cell suspension, red blood cells were lysed with Pharma lyse buffer (BD Pharmingen™) and the remaining spleen cells were washed with RPMI 1640. The isolated CD4+ T cells were then resuspended with complete RPMI-media in 12-well plates (5×10^6 cells' 2 ml per well) containing MOG peptide (25 μg/ml) for 48 hrs. Following the centrifugation, the resulted supernatants were collected for ELISA for CD4+ subset specific cytokines (see below). The cell pellets were washed with cell staining solution (ebioscience, Waltham, Mass. USA) and stained with fluorescence labeled antibody specific to IFN-γ for TH1. IL-4 for TH2, IL-17 for TH17, CD25+ for total Treg. CD25+ and FOXP3+ for FOXP3+ Treg, and CD25+ and FOXP3− for FOXP3-Tregs (ebioscience, Waltham, Mass., USA). The cells were counted and analyzed using Beackman Coulter instrument (Beckman Coulter, Inc., Brea, Calif., USA).
Background: A flow cytometer gives signals particle by particle.

In assay [3] the test system is mononuclear cells. In words: H&E staining, spinal cord infiltration of mononuclear cells in EAE mice. The following applies: 1 mg/kg/day. Format: in vivo, C57BL/6 mice. The procedure:
Female C57BL/6 mice of 8-12 weeks of age, purchased from Jackson Laboratory, were provided with food and water ad libitum and were kept in pathogen free animal care facility of Medical University of South Carolina (MUSC) throughout the study. All procedures were conducted in accordance with accepted standards of humane care as approved by the Institutional Animal Care and Use Committee (Approved number: AR #1644). EAE was induced as described previously (Nath et al., 2009). Briefly, mice were immunized subcutaneously in the flank regions with MOG35-55 peptide (MOG; 200 μg; Peptide International) emulsified (1:1) in 100 ul complete Freund's adjuvant (CFA) on day 0 and day 7. Additionally, 300 ng of Pertussis toxin (Sigma-Aldrich, St. Louis, Mo.) was given on day 0 and day 2 by i.p. injection. […] Clinical signs of EAE were scored by examiners blinded to experimental treatments using the following scale: 0=no clinical signs of disease; 1=piloerection and sluggish; 2=limp tail (ataxia); 2.5=ataxia with partial hind limb paralysis; 3=full paralysis of hind limb; 3.5=full paralysis of hind limb with paralysis of one fore limb; 4=full paralysis of two limbs; 4.5=moribund stage; 5=death. […]
Tissue samples were embedded in paraffin block and sectioned transversely (5 μm-thick). […] For the quantitation of infiltrates, the digital images were analyzed by ImageJ (NIH, Bethesda, Md.). […]

As for `Cl.O=S(=O)([O-])c1ccc(-c2c3nc(c(-c4ccc(S(=O)(=O)O)cc4)c4ccc([nH]4)c(-c4ccc(S(=O)(=O)O)cc4)c4nc(c(-c5ccc(S(=O)(=O)O)cc5)c5ccc2[nH]5)C=C4)C=C3)cc1.[Fe]` [FeTPPS, 5,10,15,20-Tetrakis(4-sulfonatophenyl)porphyrinato Iron (III), Cl, reference compound], the “thrombin-induced RhoA activation” value in assay [1] is recorded as “decreased”.
Take `N[C@@H](CCC(=O)N[C@@H](CSN=O)C(=O)NCC(=O)O)C(=O)O` [GSNO, S-nitrosoglutathione]: in assay [2], the “polarization/expansion of CD4+CD25+ FOXP3+ Treg cells in spleens” value is listed as “without altering”, the “polarization/expansion of CD4+CD25+ FOXP3− Treg cells in spleens” value was “significantly increased”, the “polarization/expansion of TH1 cells in spleens” value is given as “no obvious effect” and the “polarization/expansion of TH17 cells in spleens” value is listed as “significantly decreased”. The “polarization/expansion of total Treg cells (CD4+CD25+) in spleens” value in assay [2] is listed as “increased”. The “thrombin-induced RhoA activation” value in assay [1] is listed as “inhibited”. The “spinal cord infiltration of mononuclear cells” value in assay [3] is “reduced”.
Consider `Cc1cc(C(N)=O)ccc1-n1c(CCC(=O)O)ccc1-c1ccc(-n2ccnc2)cc1` [N6022, reference compound], for which, in assay [2], the “TH2 polarization/expansion in spleens” value is “fully restored”, the “polarization/expansion of CD4+CD25+ FOXP3+ Treg cells in spleens” value is recorded as “restored”, the “polarization/expansion of CD4+CD25+ FOXP3− Treg cells in spleens” value is given as “increased” and the “polarization/expansion of TH1 cells in spleens” value is listed as “reduced”. The “polarization/expansion of TH17 cells in spleens” value in assay [2] is “reduced”. The “spinal cord infiltration of mononuclear cells” value in assay [3] is “significantly reduced”.
